This is an account of results in paper PMC6397219, “Rapid one-step ^18F-radiolabeling of biomolecules in aqueous media by organophosphine fluoride acceptors” (Nature Communications, 2019).

In data set [1] the test system is U87MG gliomablastoma. Type of data set: in vivo, mouse. The following applies: for Tumor-SUVbw: unblocked, mean n=3. The procedure: (§1) 37 °C in a humidified atmosphere containing 5% CO 2 in Dulbecco’s Modified Eagle Medium (DMEM, high glucose) supplemented with 10% fetal bovine serum. Each male BALB/ c nude mouse wa s injected subcutane ously in the right foreleg with about 2 × 10^6 U87MG cells. At 4-5 week after inoculation, when the tumors reached about 0.5 cm in diameter, the mice were used for PET/CT imaging studies.
(§2) MicroPET/CT imaging with 18F-DBP OF-c(RGDyk)
Glioblastoma tumor mice were employed in microPET/CT imaging (n = 3) with 18F-DBPOF-c(RGDyk). Anesthetization was con ducted with 2.5% isoflurane during preparation and 1.5% during scans. 10 min dynamic microPET-CT scans were acquired by an Inveon microPET/CT (Siemens, Germany) 20 min post i.v. injection of 18F-DBPOF-c(RGDyk) (100 µL, 100 µCi). Reconstruction of PET images was performed with 3D OPMAP algorithm. […]
39~2. 51 times higher than blocked mice . The tumor was clearly observable whereas blocked mice had much less tumor uptake as indicated in Supplementary Figure 13. […]

A short description of data set [2]: Log D of 18F-DBPOF-c(RGDyk), 1-octanol/PBS. Particulars: shake-flask, pre-saturated 1-octanol/PBS pH 7.4; 2.0 mL each; four tubes; shaken 10 min, centrifuged 5 min; γ counter, decay-corrected. In kind it is physicochemical. The procedure: = 7.4) system to estimate the hydrophobicity changes between c(RGDyk) and 18F-DBP OF-c(RGDyk) that may influence biological function of c(RGDyk).
1-Octanol (2.0 mL) and phosphate buffer (2.0 mL) were pipetted into four 12 mL test tubes containing […] of radiotracer. The test tubes were stoppered, mechanic ally shaken for 10 min, and centrifuged (5 min). From each tube, approximately 0.5 mL of buffer was transferred into a pre -weighed test tube for counting. The remaining buffer was discarded and approximately 0.5 mL of octanol phase was also transferred int o a separate pre-weighed test tube. The amount of radioactivity in each tube was measured by a γ counter and corrected for decay. Accurate volumes of each counted phase were determined by weight differences and known densities. The partition coefficient was calculated using Supplementary Equation 1:
Log D = Counts/m L in buffer = -0.59 ± 0.09 1 […]
Photosensitizers were added at concentrations 0, 0.01, 0.05, 0.1, 0.5, 1 and 5 mM. The cell cytotoxic effect on the U87MG cells were determined using the CCK8 assay.
After 12 h and 24 h of incubation after the treatment we added 10 µL of CCK8 and incubated the cells for another 1 h at 37 °C and in 5% CO2. The measurement of absorbance was carried out on a 96-well microplate reader Synergy HT at 450 nm. […]

Data set [3] has as its system U87MG gliomablastoma. In kind it is in vivo, mouse. Particulars: 60 min dynamic images; n = 3. The procedure:
as §1, §2
Glioblastoma tumor mice were employed in microPET/CT imaging (n = 3) with 18F-DBPOF-c(RGDyk). Anesthetization was con ducted with 2.5% isoflurane during preparation and 1.5% during scans. 10 min dynamic microPET-CT scans were acquired by an Inveon microPET/CT (Siemens, Germany) 20 min post i.v. injection of 18F-DBPOF-c(RGDyk) (100 µL, 100 µCi). Reconstruction of PET images was performed with 3D OPMAP algorithm.
In order to study the specific tumor uptake, mice were pre-blocked by injection of 10 µmol DBPOF-c(RGDyk) 30 min prior to injection of 18F-DBPOF-c(RGDyk) as the control group. Then 60 min dynamic images were acquired to provide a control group […]
while the average tumor uptake SUV in the blocked mice was only 0.32~1.12. The tumor uptake of unblocked mice is 1. 39~2. 51 times higher than blocked mice . The tumor was clearly observable whereas blocked mice had much less tumor uptake as indicated in Supplementary Figure 13. […]

The Log D is lipophilicity at a set pH, counting ionised and neutral species.

Where two headings read alike, the source gives them in different places.

Turning to “^18F-DBPOF-c(RGDyk) (head to tail) [18F-labeled peptide ligand, targets the integrin αvβ3 receptor of the U87MG cell]”, the Tumor-SUVbw was 0.5941 in the data set with U87MG gliomablastoma [1] (21 min); 0.4485 in the data set with U87MG gliomablastoma [1] (22 min); 0.7452 in the data set on U87MG gliomablastoma [1] (23 min); 0.761 in the data set with U87MG gliomablastoma [1] (24 min); 0.4755 in the data set on U87MG gliomablastoma [1] (25 min); 0.5271 in the data set with U87MG gliomablastoma [1] (26 min). The Tumor-SUVbw worked out at 0.4212 in the data set with U87MG gliomablastoma [1] (27 min), 0.5137 in the data set with U87MG gliomablastoma [1] (28 min), 0.5036 in the data set on U87MG gliomablastoma [1] (29 min) and 0.6269 in the data set with U87MG gliomablastoma [1] (30 min). In the data set on U87MG gliomablastoma [1] (microPET/CT, 100 µCi i.v., dynamic scan from 20 min post injection), the “uptake, standardized uptake value (SUV) in U87MG gliomablastoma” value was 0.76. Further, the “target to non-target ratio” value with U87MG gliomablastoma [1] (microPET/CT, U87MG gliomablastoma) was determined as 2.4. The pH-dependent lipophilicity (Log D) in data set [2] is -0.59 ± 0.09. For the same substance, the “average tumor uptake SUV in the blocked mice” value in the data set with U87MG gliomablastoma [3] was 0.32~1.12.
